In test [1] the target is T1, HCV polymerase (NS5B) type 1b (Hepatitis C virus genotype 1b, UniProt P26663).
T1 construct: a region encoding NS5B (J Virol 1991 March, 65(3), 1105-13, 544 amino acids after deletion of 47 amino acids on the C-terminal); 6xHis (C); made in house; host or cells: Escherichia coli
Kind of test: Assay of enzyme (HCV polymerase) inhibitory activity, type 1b enzyme. The format is biochemical, HCV BK strain (type 1b). The text has this: (§1) The evaluation of the HCV polymerase inhibitory activity of the compound of the present invention is explained in the following. This polymerase is an enzyme coded for by the non-structural protein region called NS5B on the genome RNA of HCV.
(§2) i) Preparation of Enzyme (HCV Polymerase)
(§3) Using, as a template, a cDNA clone corresponding to the full length genome RNA of HCV BK strain (type 1b) obtained from the blood of a patient with hepatitis C, a region encoding NS5B (J Virol 1991 March, 65(3), 1105-13, 544 amino acids after deletion of 47 amino acids on the C-terminal) was amplified by PCR. The objective gene was prepared by adding a 6 His tag {base pair encoding 6 continuous histidine (His)} to the 3′ end thereof and transformed to Escherichia coli. The Escherichia coli capable of producing the objective protein was cultured. The obtained cells were suspended in a buffer solution and crushed in a microfluidizer. The supernatant was obtained by centrifugation and applied to various column chromatographys {mono-S, Sephacryl S-200 (Pharmacia)}, inclusive of metal chelate chromatography, to give a standard enzyme product.
(§4) ii) Synthesis of Substrate RNA
(§5) Using a synthetic primer designed based on the sequence of HCV genomic 3′ untranslated region, a DNA fragment (148 bp) containing polyU and 3′X sequence was entirely synthesized and cloned into plasmid pBluescript SK II(+) (Stratagene). The cDNA encoding full length NS5B, which was prepared in i) above, was digested with restriction enzyme KpnI to give a cDNA fragment containing the nucleotide sequence of from the restriction enzyme cleavage site to the termination codon. This cDNA fragment was inserted into the upstream of 3′ untranslated region of the DNA in pBluescript SK II(+) and ligated. The about 450 bp inserted DNA sequence was used as a template in the preparation of substrate RNA. This plasmid was cleaved immediately after the 3′X sequence, linearized and purified by phenol-chloroform treatment and ethanol precipitation to give DNA.
(§6) RNA was synthesized (37° C., 4 hr) by run-off method using this purified DNA as a template, a promoter of pBluescript SK II(+), MEGAscript RNA synthesis kit (Ambion) and T7 RNA polymerase. DNase I was added and the mixture was incubated for 1 hr. The template DNA was removed by decomposition to give a crude RNA product. This crude product was treated with phenol-chloroform and purified by ethanol precipitation to give the objective substrate RNA.
(§7) This RNA was applied to urea denaturation polyacrylamide gel electrophoresis to confirm the quality thereof and preserved at −80° C.
(§8) iii) Assay of Enzyme (HCV Polymerase) inhibitory activity
(§9) A test substance (compound of the present invention) and a reaction mixture (30 μl) having the following composition were reacted at 25° C. for 60 min.
(§10) 10% Trichloroacetic acid and 1% sodium pyrophosphate solution (150 μl) at 4° C. was added to this reaction mixture to stop the reaction. The reaction mixture was left standing at 4° C. for 15 min to insolubilize RNA. This RNA was trapped on a glass filter (PerkinElmer, GF/B) upon filtration by suction. This filter was washed with a solution containing 1% trichloroacetic acid and 0.1% sodium pyrophosphate, washed with 90% ethanol and dried. A liquid scintillation cocktail (PerkinElmer) was added and the radioactivity of RNA synthesized by the enzyme reaction was measured on a liquid scintillation counter.
The HCV polymerase inhibitory activity (IC50) of the compound of the present invention was calculated from the values of radioactivity of the enzyme reaction with and without the test substance.
Reaction mixture: HCV polymerase (type 1b 0.5 μg/ml or type 1a 1.5 μg/m) obtained in i), substrate RNA (5 μg/ml) obtained in ii), ATP (50 μM), GTP (50 μM), CTP (50 μM), UTP (2 μM), [5,6-^3H]UTP (30-60 Ci/mmol (Amersham Biosciences), 1 μCi) 20 mM Tris-HCl (pH 7.5), EDTA (1 mM), MgCl2 (5 mM), NaCl (50 mM), DTT (1 mM), BSA (0.01%)

Test [2] concerns the target T2, HCV polymerase (NS5B) type 1a (Hepatitis C virus genotype 1a, UniProt P26664).
T2 construct: made in house; host or cells: Escherichia coli (by the 'similar method' of the 1b enzyme)
Kind of test: Assay of enzyme (HCV polymerase) inhibitory activity, type 1a enzyme. The test is classed as biochemical, HCV type 1a (cloned from the blood of patients).
Excerpt: as §1, §2, §3
Standard enzyme products for type 1a (cloned from the blood of patients) were also obtained by a similar method.
as §4, §5, §6, §7, §8, §9, §10
The HCV polymerase inhibitory activity (IC50) of the compound of the present invention was calculated from the values of radioactivity of the enzyme reaction with and without the test substance. […]

[3] abbreviates: HCV polymerase inhibitory activity (IC50), 1b, type 1b enzyme 0.5 μg/ml, 25° C., 60 min.
Where [4] appears, read: HCV polymerase inhibitory activity (IC50), 1a, type 1a enzyme 1.5 μg/ml, 25° C., 60 min.
The mark [5] stands for this setting: HCV polymerase inhibitory activity IC50, 1b, type 1b enzyme.
Setting [6] is: HCV polymerase inhibitory activity IC50, 1a, type 1a enzyme.

One may read the IC50 as the point on the concentration scale where inhibition reaches its midpoint. For the compound `CC(C)c1ccc(CNC(=O)[C@H]2CN(C(=O)Cc3ccccc3)CCN2S(=O)(=O)c2ccc(C(F)(F)F)cc2)cc1` [Example 172, (R)-4-phenylacetyl-1-(4-trifluoromethyl-benzenesulfonyl)-piperazine-2-carboxylic acid 4-isopropyl-benzylamide], the IC50 in test [1] (setting [3]) was 100 to 1000 nM; in test [2] (setting [4]), over 1000 nM.
For `COc1ccc2nc(N3CCN(S(=O)(=O)c4ccc(OC(F)(F)F)cc4)[C@@H](C(=O)NCc4ccc(OC(F)(F)F)cc4)C3)sc2n1` [Example 1050, (R)-4-(5-methoxy-thiazolo[5,4-b]pyridin-2-yl)-1-(4-trifluoromethoxy-benzenesulfonyl)-piperazine-2-carboxylic acid 4-trifluoromethoxy-benzylamide], the IC50 in test [1] (setting [5]) and in test [2] (setting [6]) was 100 to 1000 nM in each case.
Turning to `CCC(F)(F)c1ccc(CNC(=O)[C@H]2CN(c3cnc(CO)c(N)n3)CCN2S(=O)(=O)c2ccc(OC(F)(F)F)cc2)cc1` [Example 604, (R)-6′-amino-5′-hydroxymethyl-4-(4-trifluoromethoxy-benzenesulfonyl)-3,4,5,6-tetrahydro-2H-[1,2′]bipyrazinyl-3-carboxylic acid 4-(1,1-difluoro-propyl)-benzylamide], the IC50 is under 100 nM in test [1] (setting [3]) and 100 to 1000 nM in test [2] (setting [4]).
Taken in the same sequence, the figures for `CC(C)c1ccc(S(=O)(=O)N2CCN(c3nc4ccccc4s3)CC2C(=O)NCc2ccc(C(F)(F)F)cc2)cc1` (centres unmarked) [Example 134, 4-benzothiazol-2-yl-1-(4-isopropyl-benzenesulfonyl)-piperazine-2-carboxylic acid 4-trifluoromethyl-benzylamide] were over 1000 nM and over 1000 nM.
For the compound `CCCc1ccc(CNC(=O)[C@H]2CN(c3cnc(C(=O)O)cn3)CCN2S(=O)(=O)c2ccc(OC(F)(F)F)cc2)c(C)c1` [Example 432, (R)-3-(2-methyl-4-propyl-benzylcarbamoyl)-4-(4-trifluoromethoxy-benzenesulfonyl)-3,4,5,6-tetrahydro-2H-[1,2′]bipyrazinyl-5′-carboxylic acid], the IC50 in test [1] (setting [3]) and in test [2] (setting [4]) was under 100 nM in each case.
Regarding `Cc1cnc(CNC(=O)[C@H]2CN(c3cnc4cncnc4n3)CCN2S(=O)(=O)c2ccc(OC(F)(F)F)cc2)cn1` [Example 721, (R)-4-pteridin-7-yl-1-(4-trifluoromethoxy-benzenesulfonyl)-piperazine-2-carboxylic acid (5-methyl-pyrazin-2-ylmethyl)-amide], the IC50 in test [1] (setting [5]) and in test [2] (setting [6]) was over 1000 nM each time.
In the case of `CCCc1ccc(CNC(=O)[C@H]2CN(c3nc4nc(Cl)ncc4s3)CCN2S(=O)(=O)c2ccc(OC(F)(F)F)cc2)cc1` [Example 913, (R)-4-(5-chloro-thiazolo[4,5-d]pyrimidin-2-yl)-1-(4-trifluoromethoxy-benzenesulfonyl)-piperazine-2-carboxylic acid 4-propyl-benzylamide], the IC50 in test [1] (setting [5]) and in test [2] (setting [6]) was under 100 nM throughout.
`CCOc1ccc(CNC(=O)[C@H]2CN(c3cnc4cncnc4n3)CCN2S(=O)(=O)c2ccc(OC(F)(F)F)cc2)cc1` [Example 651, (R)-4-pteridin-7-yl-1-(4-trifluoromethoxy-benzenesulfonyl)-piperazine-2-carboxylic acid 4-ethoxy-benzylamide]: the IC50 in test [1] (setting [3]) and in test [2] (setting [4]) was under 100 nM in each case.
For the compound `CCC(F)(F)c1ccc(CNC(=O)[C@H]2CN(c3nc4ncncc4s3)CCN2S(=O)(=O)c2ccc(C(F)(F)F)cc2)cc1` [Example 903, (R)-4-thiazolo[4,5-d]pyrimidin-2-yl-1-(4-trifluoromethyl-benzenesulfonyl)-piperazine-2-carboxylic acid 4-(1,1-difluoro-propyl)-benzylamide], the IC50 in test [1] (setting [5]) and in test [2] (setting [6]) was under 100 nM in each case.
Regarding `COCCc1ncc2sc(N3CCN(S(=O)(=O)c4ccc(OC(F)(F)F)cc4)[C@@H](C(=O)NCc4ccc(OC(F)(F)F)cc4)C3)nc2n1` [Example 1070, (R)-4-[5-(2-methoxy-ethyl)-thiazolo[4,5-d]pyrimidin-2-yl]-1-(4-trifluoromethoxy-benzenesulfonyl)-piperazine-2-carboxylic acid 4-trifluoromethoxy-benzylamide], the IC50 in test [1] (setting [5]) and in test [2] (setting [6]) was under 100 nM throughout.
On to `Cc1nc(N2CCN(S(=O)(=O)c3ccc(C(F)(F)F)cc3)[C@@H](C(=O)NCc3ccc(C(C)C)cc3)C2)sc1C(N)=O` [Example 7, (R)-4-(5-carbamoyl-4-methyl-thiazol-2-yl)-1-(4-trifluoromethyl-benzenesulfonyl)-piperazine-2-carboxylic acid 4-isopropyl-benzylamide], for which the IC50 in test [1] (setting [3]) and in test [2] (setting [4]) was under 100 nM in each case.
Regarding `CCCc1ccc(CNC(=O)[C@H]2CN(c3ccc(O)nn3)CCN2S(=O)(=O)c2ccc(OC(F)(F)F)cc2)cc1` [Example 546, (R)-4-(6-hydroxy-pyridazin-3-yl)-1-(4-trifluoromethoxy-benzenesulfonyl)-piperazine-2-carboxylic acid 4-propyl-benzylamide], the IC50 in test [1] (setting [3]) and in test [2] (setting [4]) was under 100 nM in each case.
With `CC(=O)N1CCN(S(=O)(=O)c2ccc(C(C)C)cc2)C(C(=O)NCc2ccc(OC(C)C)cc2)C1` (centres unmarked) [Example 127, 4-acetyl-1-(4-isopropyl-benzenesulfonyl)-piperazine-2-carboxylic acid 4-isopropoxy-benzylamide], the half-inhibitory concentration (IC50) in test [1] (setting [3]) and in test [2] (setting [4]) was over 1000 nM in each case.
Turning to `Cc1n[nH]c(=O)c2sc(N3CCN(S(=O)(=O)c4ccc(OC(F)(F)F)cc4)[C@@H](C(=O)NCc4ccc(OC(F)(F)F)cc4)C3)nc12` [Example 839, (R)-4-(4-methyl-7-oxo-6,7-dihydro-thiazolo[4,5-d]pyridazin-2-yl)-1-(4-trifluoromethoxy-benzenesulfonyl)-piperazine-2-carboxylic acid 4-trifluoromethoxy-benzylamide], the IC50 in test [1] (setting [5]) and in test [2] (setting [6]) was under 100 nM in each case.
Turning to `CCC(C)(C)c1ccc(CNC(=O)[C@H]2CN(c3nc(Cl)c(C(=O)O)s3)CCN2S(=O)(=O)c2ccc(OC(F)(F)F)cc2)cc1` [Example 890, 4-chloro-2-[(R)-3-[4-(1,1-dimethyl-propyl)-benzylcarbamoyl]-4-(4-trifluoromethoxy-benzenesulfonyl)-piperazin-1-yl]-thiazole-5-carboxylic acid], the IC50 in test [1] (setting [5]) and in test [2] (setting [6]) was under 100 nM throughout.
For `CC(C)c1ccc(CNC(=O)[C@H]2CN(C(N)=S)CCN2S(=O)(=O)c2ccc(C(F)(F)F)cc2)cc1` [Example 4, (R)-4-thiocarbamoyl-1-(4-trifluoromethyl-benzenesulfonyl)-piperazine-2-carboxylic acid 4-isopropyl-benzylamide], the IC50 in test [1] (setting [3]) and in test [2] (setting [4]) was 100 to 1000 nM throughout.

For the origin of these results see patent US8017612B2, “Piperazine compound and use thereof as a HCV polymerase inhibitor” (priority 2006, dated 2011).
